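Assay format: 96-well plates, 48-hour exposure. Definition used: TGI = concentration required for complete inhibition of growth.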
Tests used:
Assay in all cases: NCI tumour cell line growth inhibition, 48 h
OVCAR-4 ovarian = test system: OVCAR-4 ovarian
NCI-H226 lung = test system: NCI-H226 lung
OVCAR-5 ovarian = test system: OVCAR-5 ovarian
SK-MEL-28 melanoma = test system: SK-MEL-28 melanoma
CAKI-1 renal = test system: CAKI-1 renal
EKVX NSCLC = test system: EKVX NSCLC
SK-MEL-2 melanoma = test system: SK-MEL-2 melanoma
MDA-MB-435 = test system: MDA-MB-435
SR leukemia = test system: SR leukemia
PC-3 prostate = test system: PC-3 prostate
RPMI-8226 leukemia = test system: RPMI-8226 leukemia
HS 578T breast = test system: HS 578T breast
SF-268 CNS = test system: SF-268 CNS
RXF 393 renal = test system: RXF 393 renal
HCC-2998 colon = test system: HCC-2998 colon
IGROV1 ovarian = test system: IGROV1 ovarian

SMILES	TGI (OVCAR-4 ovarian) [µM]	TGI (NCI-H226 lung) [µM]	TGI (OVCAR-5 ovarian) [µM]	TGI (SK-MEL-28 melanoma) [µM]	TGI (CAKI-1 renal) [µM]	TGI (EKVX NSCLC) [µM]	TGI (SK-MEL-2 melanoma) [µM]	TGI (MDA-MB-435) [µM]	TGI (SR leukemia) [µM]	TGI (PC-3 prostate) [µM]	TGI (RPMI-8226 leukemia) [µM]	TGI (HS 578T breast) [µM]	TGI (SF-268 CNS) [µM]	TGI (RXF 393 renal) [µM]	TGI (HCC-2998 colon) [µM]	TGI (IGROV1 ovarian) [µM]
CCOC(=O)/C(C(=S)Nc1ccccc1)=C(/N)N1CCCC1	> 100	> 100	> 100	> 100	> 100	> 100	> 100	> 100	> 100	> 100	> 100	> 100	> 100	> 100	> 100	> 100
CC(=O)OC1C(O)COC(O[C@H]2CC[C@]34C[C@]35CC[C@]3(C)C([C@@]6(C)CC[C@@H](C(C)(C)O)O6)[C@@H](O)C[C@@]3(C)C5C[C@H](OC3OCC(O)C(O)C3O)[C@H]4C2(C)C)C1OC1OCC(O)C(O)C1O (some centres undefined)	> 100	> 100	> 100	> 100	> 100	> 100	> 100	> 100	> 100	> 100	> 100	> 100	> 100	> 100	> 100	> 100
COc1nc2c(c(=O)n1C)N(C(C)=O)C1C(N2)OCC(OC(C)=O)C1OC(C)=O (centres undefined)	> 10	> 10	> 10	> 10	> 10	> 10	> 10	> 10	> 10	> 10	> 10	> 10	> 10	> 10	> 10	> 10
O=C(NCc1cccnc1)NCc1cccnc1	> 100	> 100	> 100	> 100	> 100	> 100	> 100	> 100	> 100	> 100	> 100	> 100	> 100	> 100	> 100	> 100
O=c1oc2ccccc2c(Nc2ccc3c(c2)S(=O)(=O)c2ccccc2O3)c1[N+](=O)[O-]	73.5	74.9	> 100	51.9	51.3	> 100	46.4	97.3	72.6	62.1	59.8	> 100	> 100	51.2	52.6	97.1
CN(/N=C(\C(=O)O)c1ccccc1)C1=NCCCN1	> 100	> 100	> 100	> 100	> 100	> 100	> 100	> 100	> 100	> 100	> 100	> 100	> 100	> 100	> 100	> 100
Cc1cc(C)c(C2=NOC(c3ccccc3)(c3cc(=O)n(-c4ccccc4)s3)O2)c(C)c1 (centres undefined)	> 100	57.1	40.9	94.4	33.7	50.2	89.5	> 100	> 100	> 100	> 100	> 100	> 100	33.3	> 100	> 100
Cc1cc(=O)[nH]c(NN2C(Cl)C(=O)C2c2ccc(Cl)cc2)n1 (centres undefined)	> 64.7	42	> 60.4	49.6	30.7	35	46.4	60	6.22	> 100	33.1	93.5	> 66.2	45.1	32.1	15.1
O=C(c1ccccc1)c1ccc(COc2ccc(C(c3c(O)c4ccccc4oc3=O)c3c(O)c4ccccc4oc3=O)cc2)cc1	73	31	38.9	47.4	45	40	34.9	46.8	63.9	34.9	38.4	> 100	> 100	44.5	33.5	28.5

Reference: PubChem BioAssay (NCI)
